# Assay results published in patent US10633409B2, “Bola-amphiphilic compounds and their uses for biomedical applications” (UNIVERSITE DE BORDEAUX, priority 2014, dated 2020).
# Key:
# [1] = Gelation test (tube inversion); format: physicochemical; conditions: aqueous dispersion 1.5 wt % in Milli-Q water, heated until dissolution (45° C.), cooled to room temperature
# Description: The aqueous dispersions (Milli-Q water, 18 MΩ·cm^−1) containing 1.5 wt % of compounds 5 and 6 obtained in examples 1 and 2 were heated until dissolution (at 45° C.) and gradually allowed to cool to room temperature unless otherwise stated.
# [2] = Sol-gel transition temperature (Tgel) by rheology; format: physicochemical; conditions: hydrogel 3% w/v, heated from 25 to 60° C. (3° C./min), oscillatory stress 5 Pa, 1 Hz
# Description: The determination of gel-sol transition temperature can also be determinated by rheology. The hydrogel (3% product 6 of example 2, w/v) was heated progressively from 25 to 60° C. (3° C./min). The oscillatory stress applied was set to 5 Pa at a constant frequency (1 Hz). The sol-gel transition point was taken as the temperature at which the gel became liquid. This melting temperature is reached at the intersection of the viscoelastic moduli (G′ and G″). This value is of 46° C. which is compatible with the cell culture at the gel state (37° C.).
# [3] = test system: human mesenchymal stem cells (ASCs); assay: Cytotoxicity by MTT test (cell metabolic activity); format: cell-based
# Description: (§1) Mesenchymal stem cells were isolated from human adipose tissue. Human subcutaneous fat was obtained from healthy patients aged 20 to 80 years old who underwent hip surgery in Bordeaux Pellegrin CHU (Bordeaux, France). Fat mass was separated from other tissues, washed with sterilized PBS, finely cut and incubated with 0.1% (w/v) collagenase type I (Worthington, Lakewood, N.J., USA) at 37° C. with gentle agitation for 1 h 30. After filtration and centrifugation, the top liquid layer was removed and the remaining Stromal Vascular Fraction (SVF) was treated for 10 min with ELB (Erythocyte Lysis Buffer; 155 mM NH4Cl (Sigma-Aldrich, St. Louis, Mo., USA), 5.7 mM K2HPO4, 7.4 mM K2HPO4-3H2O, 0.1 mm EDTA (all Sigma-Aldrich)), and then centrifuged. […]
# The cytotoxicity of compound 6 was evaluated by the measurement of the cell metabolic activity (MTT assay). […]
# MTT assay was performed after 72 h of incubation. […] Results were expressed as a percentage of the metabolic activity of the positive control. Absorbance was measured at a wavelength of 570 nm with background subtraction at 630 nm.
# The cytotoxicity of compound 6 was determined by MTT test to measure the metabolic activity of human mesenchymal stem cells (ASCs) 48 hours after incubation with increasing concentrations of compound 6. […]
# [4] = test system: rat osteoblastic cells (A) or human ASCs (B); assay: Cytocompatibility by Alamar Blue metabolism in cells grown in compound 6-based gels; format: cell-based; conditions: compound 6-based gel 3% (w/v)
# Description: as §1
# Cell viability was also evaluated by using the Alamar Blue metabolic activity assay. […] After this time, the fluorescence was measured at wavelengths excitation 530 nm and emission 590 nm. Triplicate samples were analyzed for each experiment. […]
# Cytocompatibility was determined by monitoring alamar blue metabolism in rat osteoblastic cells (A) or human ASCs (B) grown in compound 6-based gels. […]
# hASCs or D1 = assay: Live/Dead staining (calcein-AM, ethidium homodimer) of cells seeded within gels; format: cell-based; conditions: cells seeded within gel 3% (w/v), at 2 weeks
# Description: For all in vitro assays, the hydrogel obtained from compound 6 was prepared at a concentration of 3% (w/v). The compound 6 powder was solubilized in PBS 1× under agitation (900 rpm) at 25° C. during 45 minutes. Then, when the gel was formed, it was left at room temperature, without agitation, during 3 to 4 hours. To allow cell seeding, the gel was heated during 30 minutes at 55° C. Once the liquid solution was obtained, it was rapidly cooled down to 37° C. and thoroughly mixed with 10 μL cell suspension at a concentration of 1 million cells per mL of gel. Finally, the cellularized hydrogel was maintained under agitation (600 rpm), at 25° C. during 45 minutes. After this period, medium was been added (250 μL/tube) and tubes were incubated at controlled atmosphere (5% CO2, 37° C.)
# […] Cells seeded within gels were incubated for 1 h at 37° C. in Hank's medium supplemented with 1.25 μL calcein-AM and 5 μL EthD-1.
Structure (SMILES),gel formation (solid aggregate mass stable to inversion of the container) [1],"sol-gel transition temperature (Tgel), intersection of G′ and G″ [2] [°C]","concentrations up to which the compound is non toxic ([3]; MTT, human ASCs, tested 5 μM to 5 mM, value printed as approximate) [µM]",cytotoxicity (result in words) ([3]; summary of example 12),cytocompatibility when used as cell culture medium [4],Live/dead staining result (hASCs or D1)
"Cc1cn([C@H]2C[C@H](O)[C@@H](Cn3cc(COCCCCCCCCCCCCO)nn3)O2)c(=O)n(Cc2cn([C@@H]3O[C@H](CO)[C@@H](O)[C@H](O)[C@H]3O)nn2)c1=O [compound 5, 5′-[4-(12-hydroxydodecanyloxy)methyl)-1H-1,2,3-triazol-1-yl]-5′-deoxy-N3-(1-((β-D-glucopyranoside)-1H-1,2,3-triazol-4-yl)methyl thymidine]",form gels,–,–,–,–,–
Cc1cn([C@H]2C[C@H](O)[C@@H](Cn3cc(COCCCCCCCCCCCCOCc4cn(C[C@H]5O[C@@H](n6cc(C)c(=O)n(Cc7cn([C@@H]8O[C@H](CO)[C@@H](O)[C@H](O)[C@H]8O)nn7)c6=O)C[C@@H]5O)nn4)nn3)O2)c(=O)n(Cc2cn([C@@H]3O[C@H](CO)[C@@H](O)[C@H](O)[C@H]3O)nn2)c1=O [compound 6],form gels,46,≤ 1000,not cytotoxic,god cytocompatibility,vast majority of green (living) cells
